Usually IC50 stands for the point on the concentration scale where inhibition reaches its midpoint.

Results on 26 compounds are retold here after patent publication US9862716B2, “TRKA kinase inhibitors, compositions and methods thereof” (Merck Sharp & Dohme Corp., priority 2014, dated 2018).

T1 sequence (P04629 33-796): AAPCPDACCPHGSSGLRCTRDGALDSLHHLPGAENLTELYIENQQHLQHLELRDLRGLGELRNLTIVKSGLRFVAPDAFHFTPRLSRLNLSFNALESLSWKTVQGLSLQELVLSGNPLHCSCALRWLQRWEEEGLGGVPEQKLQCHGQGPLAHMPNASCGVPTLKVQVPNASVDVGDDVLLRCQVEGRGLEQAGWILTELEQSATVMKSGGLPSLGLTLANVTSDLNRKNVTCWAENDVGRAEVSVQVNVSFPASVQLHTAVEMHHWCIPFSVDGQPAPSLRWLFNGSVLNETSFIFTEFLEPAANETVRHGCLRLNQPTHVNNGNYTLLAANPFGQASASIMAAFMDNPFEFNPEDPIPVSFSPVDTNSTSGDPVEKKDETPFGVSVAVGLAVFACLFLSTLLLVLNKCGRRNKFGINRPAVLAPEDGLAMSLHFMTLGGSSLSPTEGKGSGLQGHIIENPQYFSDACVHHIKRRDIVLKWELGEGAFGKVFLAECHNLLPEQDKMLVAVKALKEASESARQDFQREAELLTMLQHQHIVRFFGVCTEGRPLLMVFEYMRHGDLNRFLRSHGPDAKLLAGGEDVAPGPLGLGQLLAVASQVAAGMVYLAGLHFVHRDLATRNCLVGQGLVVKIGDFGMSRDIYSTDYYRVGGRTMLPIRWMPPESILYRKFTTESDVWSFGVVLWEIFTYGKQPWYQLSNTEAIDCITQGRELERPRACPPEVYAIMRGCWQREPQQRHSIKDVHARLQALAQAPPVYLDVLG

The experiment has as its target T1, human TrkA receptor (Homo sapiens, UniProt P04629).
T1 construct: host or cells: U2OS cells (PathHunter cell line)
The experiment is described as follows: DiscoverX PathHunter TrkA functional assay (NGF-stimulated U2OS cells). To be noted: U2OS cells expressing human TrkA-PK, Shc1-EA and p75NTR; compound 1 h, then NGF at ~80% of maximal response for 3 h; luminescence. Format: cell-based.
Method: TrkA functional activity was measured using a DiscoverX PathHunter assay. In this assay, U2OS cells express the human TrkA receptor as a fusion with the weakly complementing fragment of B-galactosidase, which DiscoverX calls “Prolink (PK)”; additionally, Shc1 is fused with a larger fragment, which is called “Enzyme Acceptor (EA)”. Activation of the TrkA receptor, upon NGF addition, results in the kinase domain being phosphorylated, resulting in subsequent recruitment of Shc1-EA protein. That recruitment results in an active B-galactosidase enzyme that is detected by addition of a chemiluminescent substrate. The human p75^NTR protein was also expressed as a co-receptor for NGF.
All reagents were purchased from DiscoverX, except for the receptor agonists (NGF, BDNF, NT3) which were purchased from Peprotech. Cells were expanded and frozen into cryovials, and stored in the vapor phase of liquid nitrogen, and thawed immediately before use. Thawed cells were added to a 384-well plate at 7500 cells/well, and allowed to incubate overnight. Compound at various concentrations was added the following morning and allowed to incubate on cells for 1 h. Then, NGF was added at a concentration sufficient to elicit ˜80% of a maximal response and allowed to incubate for 3 h at ambient temperature. DiscoverX PathHunter detection reagent was then added and the plate was further incubated for 1 h in the dark. The plate was then read via luminescence on the Perkin Elmer Envision.
`Cn1ccc(-c2cc(C(=O)Nc3c(-c4ccccc4)nc4ccc(F)cn34)ccc2C(F)(F)F)n1` [Compound 21, N-(6-fluoro-2-phenylimidazo[1,2-a]pyridin-3-yl)-3-(1-methyl-1H-pyrazol-3-yl)-4-(trifluoromethyl) benzamide] displayed an IC50 of 3.8 nM.

Compound `Cn1ccc(-c2cc(C(=O)Nc3c(-c4ccccc4)nc4cc(CNC(=O)CO)ccn34)ccc2C(F)(F)F)n1` [Compound 80, N-(7-{[(hydroxyacetyl)amino]methyl}-2-phenylimidazo[1,2-a]pyridin-3-yl)-3-(1-methyl-1H-pyrazol-3-yl)-4-(trifluoromethyl) benzamide] returned an IC50 of 20 nM.

The compound `Cc1ccc(C(=O)Nc2c(-c3ccccc3)nc3ccccn23)cc1-c1ccn(C)n1` [Compound 15, 4-methyl-3-(1-methyl-1H-pyrazol-3-yl)-N-(2-phenylimidazo[1,2-a]pyridin-3-yl)benzamide] showed an IC50 of 26 nM.

In turn, `CN(C)C(=O)c1ccn2c(NC(=O)c3ccc(C(F)(F)F)c(-c4ccn(C)n4)c3)c(-c3ccccc3)nc2c1` [Compound 28, N,N-dimethyl-3-({[3-(1-methyl-1H-pyrazol-3-yl)-4-(trifluoromethyl)phenyl]carbonyl}amino)-2-phenylimidazo[1,2-a]pyridine-7-carboxamide] returned an IC50 of 1.3 nM.

Consider `Cn1ccc(-c2cc(C(=O)Nc3c(-c4ccccc4)nc4cc(C5(O)CC5)ccn34)ccc2C(F)(F)F)n1` [Compound 69, N-[7-(1-hydroxycyclopropyl)-2-phenylimidazo[1,2-a]pyridin-3-yl]-3-(1-methyl-1H-pyrazol-3-yl)-4-(trifluoromethyl) benzamide], for which half-maximal inhibition (IC50) required 3.4 nM.

`CC(O)c1ccc2nc(-c3ccccc3)c(NC(=O)c3ccc(C(F)(F)F)c(-c4ccn(C)n4)c3)n2c1` (single isomer, unassigned) [Compound 48, (R or S)-N-[6-(1-hydroxyethyl)-2-phenylimidazo[1,2-a]pyridin-3-yl]-3-(1-methyl-1H-pyrazol-3-yl)-4-(trifluoromethyl) benzamide]: the IC50 stood at 1.9 nM.

`O=C(Nc1c(-c2ccccc2)nc2ccccn12)c1ccc(C(F)(F)F)c(-c2cc[nH]n2)c1` [Compound 9, N-(2-phenylimidazo[1,2-a]pyridin-3-yl)-3-(1H-pyrazol-3-yl)-4-(trifluoromethyl) benzamide] returned an IC50 of 8.8 nM.

In turn, `Cn1ccc(-c2cc(C(=O)Nc3c(-c4ccccc4)nc4sccn34)ccc2C(F)(F)F)n1` [Compound 12, 3-(1-methyl-1H-pyrazol-3-yl)-N-(6-phenylimidazo[2,1-b][1,3]thiazol-5-yl)-4-(trifluoromethyl) benzamide] yielded an IC50 of 1.9 nM.

The compound `Cc1nc(-c2nc3ccccn3c2NC(=O)c2ccc(C(F)(F)F)c(-c3ccn(C)n3)c2)co1` [Compound 16, N-[2-(2-methyl-1,3-oxazol-4-yl)imidazo[1,2-a]pyridin-3-yl]-3-(1-methyl-1H-pyrazol-3-yl)-4-(trifluoromethyl) benzamide] gave an IC50 of 556 nM.

The compound `CC(C)(O)c1ccn2c(NC(=O)c3cc(-c4ncccn4)c(C(F)(F)F)cc3F)c(-c3ccccc3)nc2c1` [Compound 53, 2-fluoro-N-[7-(1-hydroxy-1-methylethyl)-2-phenylimidazo[1,2-a]pyridin-3-yl]-5-pyrimidin-2-yl-4-(trifluoromethyl) benzamide] displayed an IC50 of 1.1 nM.

As to `Cn1ccc(-c2cc(C(=O)Nc3c(-c4ccccc4)nc4ccccn34)c(F)cc2C(F)(F)F)n1` [Compound 35, 2-fluoro-5-(1-methyl-1H-pyrazol-3-yl)-N-(2-phenylimidazo[1,2-a]pyridin-3-yl)-4-(trifluoromethyl) benzamide], inhibition was half-maximal at 0.49 nM (IC50).

`Cn1ccc(-c2cc(C(=O)Nc3c(-c4ccccc4)nc4ccc(CO)cn34)ccc2C(F)(F)F)n1` [Compound 37, N-[6-(hydroxymethyl)-2-phenylimidazo[1,2-a]pyridin-3-yl]-3-(1-methyl-1H-pyrazol-3-yl)-4-(trifluoromethyl) benzamide] registered an IC50 of 1.8 nM.

`Cn1ccc(-c2cc(C(=O)Nc3c(-c4ccccc4)nc4cc(C(O)C(F)(F)F)ccn34)ccc2C(F)(F)F)n1` (single isomer, unassigned) [Compound 64, (R or S)-3-(1-methyl-1H-pyrazol-3-yl)-N-[2-phenyl-7-(2,2,2-trifluoro-1-hydroxyethyl)imidazo[1,2-a]pyridin-3-yl]-4-(trifluoromethyl) benzamide] displayed an IC50 of 1.1 nM.

Take `O=C(Nc1c(-c2ccccc2)nc2ccccn12)c1ccc(C(F)(F)F)c(-c2nc[nH]n2)c1` [Compound 34, N-(2-phenylimidazo[1,2-a]pyridin-3-yl)-3-(1H-1,2,4-triazol-3-yl)-4-(trifluoromethyl) benzamide]: the IC50 turned out to be 58 nM.

`CC(O)c1ccn2c(NC(=O)c3cc(-c4cc[nH]n4)c(C(F)(F)F)cc3F)c(-c3ccccc3)nc2c1` (single isomer, unassigned) [Compound 73, (R or S)-2-fluoro-N-[7-(1-hydroxyethyl)-2-phenylimidazo[1,2-a]pyridin-3-yl]-5-(1H-pyrazol-3-yl)-4-(trifluoromethyl) benzamide] returned an IC50 of 1.4 nM.

Regarding `CC(O)c1ccc2[nH]c(-c3ccccc3)c(NC(=O)c3cc(-c4ccn(C)n4)c(C(F)(F)F)cc3F)c2c1` (single isomer, unassigned) [Compound 112, (R or S)-2-fluoro-N-[5-(1-hydroxyethyl)-2-phenyl-1H-indol-3-yl]-5-(1-methyl-1H-pyrazol-3-yl)-4-(trifluoromethyl) benzamide], the midpoint of inhibition, the IC50, lay at 1.4 nM.

On to `Cn1ccc(-c2cc(C(=O)Nc3c(-c4ccccc4)nc4cc(N5CCNCC5)ccn34)ccc2C(F)(F)F)n1` [Compound 90, 3-(1-methyl-1H-pyrazol-3-yl)-N-(2-phenyl-7-piperazin-1-ylimidazo[1,2-a]pyridin-3-yl)-4-(trifluoromethyl) benzamide], for which half-maximal inhibition (IC50) required 3.8 nM.

Compound `Cn1ccc(-c2cc(C(=O)Nc3c(-c4ccccc4)nc4cc(Br)ccn34)ccc2C(F)(F)F)n1` [Compound 39, N-(7-bromo-2-phenylimidazo[1,2-a]pyridin-3-yl)-3-(1-methyl-1H-pyrazol-3-yl)-4-(trifluoromethyl) benzamide] returned an IC50 of 2.7 nM.

Compound `CC(O)c1ccn2nc(-c3ccccc3)c(NC(=O)c3cc(-c4ccn(C)n4)c(C(F)(F)F)cc3F)c2c1` (single isomer, unassigned) [Compound 107, (R or S)-2-fluoro-N-[5-(1-hydroxyethyl)-2-phenylpyrazolo[1,5-a]pyridin-3-yl]-5-(1-methyl-1H-pyrazol-3-yl)-4-(trifluoromethyl) benzamide] yielded an IC50 of 0.85 nM.

`CC(O)c1ccn2c(NC(=O)c3ccc(C(F)(F)F)c(-c4ncccn4)c3)c(-c3ccccc3)nc2c1` (single isomer, unassigned) [Compound 67, (R or S)-N-[7-(1-hydroxyethyl)-2-phenylimidazo[1,2-a]pyridin-3-yl]-3-pyrimidin-2-yl-4-(trifluoromethyl) benzamide] came in with an IC50 of 5.1 nM.

Compound `CC(C)(O)c1ccn2c(NC(=O)c3ccc(C(F)(F)F)c(-c4ncccn4)c3)c(-c3ccccc3)nc2c1` [Compound 43, N-[7-(1-hydroxy-1-methylethyl)-2-phenylimidazo[1,2-a]pyridin-3-yl]-3-pyrimidin-2-yl-4-(trifluoromethyl) benzamide] registered an IC50 of 7.9 nM.

`Cn1ccc(-c2cc(C(=O)Nc3c(-c4ccccc4)nc4cc(N5CCOCC5)ccn34)ccc2C(F)(F)F)n1` [Compound 88, 3-(1-methyl-1H-pyrazol-3-yl)-N-(7-morpholin-4-yl-2-phenylimidazo[1,2-a]pyridin-3-yl)-4-(trifluoromethyl) benzamide] showed an IC50 of 1.2 nM.

For the compound `COC(=O)NCc1ccn2c(NC(=O)c3ccc(C(F)(F)F)c(-c4ccn(C)n4)c3)c(-c3ccccc3)nc2c1` [Compound 83, methyl{[3-({[3-(1-methyl-1H-pyrazol-3-yl)-4-(trifluoromethyl)phenyl]carbonyl}amino)-2-phenylimidazo[1,2-a]pyridin-7-yl]methyl}carbamate], the IC50 is 0.77 nM.

The compound `CC(O)c1ccn2c(NC(=O)c3ccc(C(F)(F)F)c(-c4ccn(C(F)F)n4)c3)c(-c3ccccc3)nc2c1` (single isomer, unassigned) [Compound 77, (R or S)-3-[1-(difluoromethyl)-1H-pyrazol-3-yl]-N-[7-(1-hydroxyethyl)-2-phenylimidazo[1,2-a]pyridin-3-yl]-4-(trifluoromethyl) benzamide] yielded an IC50 of 4 nM.

In the case of `O=C(Nc1c(-c2ccccc2)nc2ccccn12)c1cc(-c2cc[nH]n2)c(C(F)(F)F)cc1F` [Compound 40, 2-fluoro-N-(2-phenylimidazo[1,2-a]pyridin-3-yl)-5-(1H-pyrazol-3-yl)-4-(trifluoromethyl) benzamide], it took 2.7 nM to reach half-maximal inhibition (IC50).

On to `Cn1ccc(-c2cc(C(=O)Nc3c(-c4ccccc4)nc4ccc(C(O)C(F)(F)F)cn34)ccc2C(F)(F)F)n1` (single isomer, unassigned) [Compound 65, (R or S)-3-(1-methyl-1H-pyrazol-3-yl)-N-[2-phenyl-6-(2,2,2-trifluoro-1-hydroxyethyl)imidazo[1,2-a]pyridin-3-yl]-4-(trifluoromethyl) benzamide], for which the IC50 stood at 12 nM.
